Source: patent publication US20220395542A1, “Nutritional Compositions for Treating a Clostridium Difficile Infection” (ABBOTT LABORATORIES, priority 2019, published 2022)

Tested on: C. difficile
Test: in vitro gut digestion and fermentation model (SHIME PathoGut) assessing CDI and CDI recurrence
Type: cell-based, Clostridium difficile
Conditions: control experiments (FIGS. 1 and 2); vancomycin 125 mg/L three times per day for seven days after the 4 weeks of CDI

With `CN[C@H](CC(C)C)C(=O)N[C@H]1C(=O)N[C@@H](CC(N)=O)C(=O)N[C@H]2C(=O)N[C@H]3C(=O)N[C@H](C(=O)N[C@H](C(=O)O)c4cc(O)cc(O)c4-c4cc3ccc4O)[C@H](O)c3ccc(c(Cl)c3)Oc3cc2cc(c3O[C@@H]2O[C@H](CO)[C@@H](O)[C@H](O)[C@H]2O[C@H]2C[C@](C)(N)[C@H](O)[C@H](C)O2)Oc2ccc(cc2Cl)[C@H]1O` [vancomycin] the CD cell count was “below detectable levels”.
